# In patent US12084430B2, “Tricyclic urea compounds as JAK2 V617F inhibitors” (Incyte Corporation, priority 2022, dated 2024):
# pIC50: −log10 of the molar value. Where two headings read alike, the source gives them in different places.
# Columns and labels:
# [1] = target: T1, pseudo-kinase domain (JH2) of human V617F mutant JAK2 (Homo sapiens, UniProt O60674, F794H/V617F/W659A/W777A); test: JAK2 LanthaScreen JH2-V617F binding assay; settings: read-out: JH2 V617F Bind IC50
# T1 construct: pseudo-kinase domain (JH2, amino-acids 536-812 with 3 surface mutations W659A, W777A, F794H); His (C); purchased BPS Bioscience 79498; host or cells: baculovirus expression system
# KIT [2] = target: KIT (Homo sapiens, UniProt P10721); test: KIT enzymatic assay; type: biochemical; settings: 1 mM ATP
# In short: (§1)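 0.12 nM KIT with 1 mM ATP and 500 nM biotinylated TK substrate in 50 mM HEPES pH 7.0, 10 mM MgCl2, 1 mM DTT, 0.1 mM orthovanadate, 0.5% DMSO; 60 min at room temperature. TR-FRET 665/620 nm ratio; IC50 fitted from percent control activity versus log concentration.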
# KIT [3] = test: KIT enzymatic assay; type: biochemical
# In short: as §1
# [4] = In vitro intrinsic clearance; type: in vitro ADME; settings: human liver microsomes, 1 μM
# In short: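 Compound at 1 μM was incubated at 37° C with human liver microsomes (0.5 mg protein/mL) and 2 mM NADPH in pH 7.4 phosphate buffer, sampled at 0–30 min and analysed by LC-MS/MS. CLint was derived from t1/2 of depletion and scaled to human hepatic clearance with the well-stirred model (Q 20 mL·min^−1·kg^−1).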
# TRKA [5] = test: TRKA enzymatic assay; type: biochemical
# In short: (§2)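 The reaction mix held 0.58 nM TRKA, 1 mM ATP and 500 nM biotinylated TK substrate in 50 mM HEPES pH 7.0 with 10 mM MgCl2, 1 mM DTT and 0.5% DMSO, run 60 min at room temperature. Product was detected by TR-FRET as the 665/620 nm ratio. IC50 was fitted from % control activity versus log concentration, using DMSO-only and no-ATP wells as controls.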
# TRKA [6] = target: TRKA (Homo sapiens, UniProt P04629); test: TRKA enzymatic assay; type: biochemical; settings: 1 mM ATP
# In short: as §2
# T1 sequence (O60674 536-812 V617F/W659A/W777A/F794H): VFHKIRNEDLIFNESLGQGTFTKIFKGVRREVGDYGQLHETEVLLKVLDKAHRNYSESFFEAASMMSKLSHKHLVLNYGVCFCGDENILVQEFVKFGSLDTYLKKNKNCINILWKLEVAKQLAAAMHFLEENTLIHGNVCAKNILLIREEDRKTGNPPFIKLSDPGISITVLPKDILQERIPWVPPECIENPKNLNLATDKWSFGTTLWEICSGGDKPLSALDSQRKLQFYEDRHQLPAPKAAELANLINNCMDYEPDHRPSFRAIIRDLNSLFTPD
# Sequence of KIT (Homo sapiens, UniProt P10721) (P10721 26-976, species assumed): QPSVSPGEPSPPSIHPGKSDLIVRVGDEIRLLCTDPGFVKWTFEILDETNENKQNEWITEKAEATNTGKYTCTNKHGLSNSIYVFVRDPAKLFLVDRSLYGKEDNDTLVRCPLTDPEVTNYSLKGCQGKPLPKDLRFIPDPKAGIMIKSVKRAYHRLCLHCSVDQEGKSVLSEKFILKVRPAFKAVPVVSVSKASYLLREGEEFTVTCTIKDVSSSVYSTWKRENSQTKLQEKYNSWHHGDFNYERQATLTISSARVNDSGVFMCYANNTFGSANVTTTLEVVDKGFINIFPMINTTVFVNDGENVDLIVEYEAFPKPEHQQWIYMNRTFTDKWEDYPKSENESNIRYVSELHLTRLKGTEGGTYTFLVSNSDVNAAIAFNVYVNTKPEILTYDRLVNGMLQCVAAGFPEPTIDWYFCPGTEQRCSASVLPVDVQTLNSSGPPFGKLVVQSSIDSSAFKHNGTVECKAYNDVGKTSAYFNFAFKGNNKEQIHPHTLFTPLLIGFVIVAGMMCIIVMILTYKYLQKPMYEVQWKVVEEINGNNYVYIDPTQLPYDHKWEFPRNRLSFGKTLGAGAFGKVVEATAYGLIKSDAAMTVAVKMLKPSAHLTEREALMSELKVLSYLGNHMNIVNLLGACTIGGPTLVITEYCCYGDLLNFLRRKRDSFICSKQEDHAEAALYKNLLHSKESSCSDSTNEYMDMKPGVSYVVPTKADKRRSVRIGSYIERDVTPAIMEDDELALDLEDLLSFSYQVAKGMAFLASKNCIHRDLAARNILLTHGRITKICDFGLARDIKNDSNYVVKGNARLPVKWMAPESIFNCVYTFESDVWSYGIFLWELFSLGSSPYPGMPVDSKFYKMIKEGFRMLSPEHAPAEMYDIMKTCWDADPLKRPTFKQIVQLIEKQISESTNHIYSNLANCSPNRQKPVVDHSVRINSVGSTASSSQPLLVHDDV
# Sequence of TRKA (Homo sapiens, UniProt P04629) (P04629 33-796, species assumed): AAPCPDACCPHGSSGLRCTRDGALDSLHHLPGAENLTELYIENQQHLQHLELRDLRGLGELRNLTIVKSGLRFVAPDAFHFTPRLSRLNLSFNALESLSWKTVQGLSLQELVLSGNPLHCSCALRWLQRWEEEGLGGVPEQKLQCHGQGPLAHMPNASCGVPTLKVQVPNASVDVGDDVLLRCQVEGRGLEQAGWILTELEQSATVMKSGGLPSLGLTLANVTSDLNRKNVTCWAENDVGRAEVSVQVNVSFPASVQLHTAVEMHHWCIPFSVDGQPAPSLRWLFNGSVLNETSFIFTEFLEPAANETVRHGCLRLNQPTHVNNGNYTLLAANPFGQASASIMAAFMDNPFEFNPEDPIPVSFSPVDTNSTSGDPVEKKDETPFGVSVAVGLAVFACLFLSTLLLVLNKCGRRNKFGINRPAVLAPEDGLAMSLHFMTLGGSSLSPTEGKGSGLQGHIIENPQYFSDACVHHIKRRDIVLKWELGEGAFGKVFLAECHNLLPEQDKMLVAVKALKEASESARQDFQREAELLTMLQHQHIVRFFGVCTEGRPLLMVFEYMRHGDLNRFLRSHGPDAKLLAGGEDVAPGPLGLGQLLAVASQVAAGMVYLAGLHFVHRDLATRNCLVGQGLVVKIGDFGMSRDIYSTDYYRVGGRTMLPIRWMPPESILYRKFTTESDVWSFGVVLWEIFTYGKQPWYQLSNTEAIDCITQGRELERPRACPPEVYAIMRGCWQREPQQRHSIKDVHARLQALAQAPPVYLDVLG
SMILES,pIC50 ([1]; Table A),pIC50 ([1]; Table C),pIC50 (KIT [2]),Selectivity KIT/JH2 V617F (KIT [3]),h-IntCL [4],Selectivity TRKA/JH2 V617F (TRKA [5]),pIC50 (TRKA [6])
"[2H]C([2H])([2H])n1ncc2cc(-c3c(-c4cn(C([2H])(C([2H])([2H])[2H])C([2H])([2H])[2H])nc4F)[nH]c4ncc5c(c34)n([C@@H]3CC[C@@H](NC(=O)OC)C3)c(=O)n5C([2H])([2H])[2H])ccc21 [Example 21, Methyl ((1R,3R)-3-(7-(3-fluoro-1-(propan-2-yl-d7)-1H-pyrazol-4-yl)-3-(methyl-d3)-8-(1-(methyl-d3)-1H-indazol-5-yl)-2-oxo-3,6-dihydroimidazo[4,5-d]pyrrolo[2,3-b]pyridin-1(2H)-yl)cyclopentyl)carbamate]",≥ 8.00,≥ 8.00,5.60 to 5.90,****** (selectivity of >12500-fold),‡ ‡ (h-IntCL of ≥0.7 L/h/kg to ≤1 L/h/kg),****** (selectivity of >12500-fold),< 5.60
"[2H]C([2H])([2H])n1cc(-c2[nH]c3ncc4c(c3c2-c2ccc3c(cnn3CC(F)F)c2)n([C@@H]2CC[C@@H](NC(=O)OC)C2)c(=O)n4C([2H])([2H])[2H])c(F)n1 [Example 14, Methyl ((1R,3R)-3-(8-(1-(2,2-difluoroethyl)-1H-indazol-5-yl)-7-(3-fluoro-1-(methyl-d3)-1H-pyrazol-4-yl)-3-(methyl-d3)-2-oxo-3,6-dihydroimidazo[4,5-d]pyrrolo[2,3-b]pyridin-1(2H)-yl)cyclopentyl)carbamate]",≥ 8.00,≥ 8.00,5.90 to 6.60,***** (selectivity of >5000-fold to ≤12500-fold),‡ ‡ (h-IntCL of ≥0.7 L/h/kg to ≤1 L/h/kg),****** (selectivity of >12500-fold),< 5.60
